Assay results as given in ChEMBL document CHEMBL1201862, “PubChem BioAssay data set” (2004).
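These data come from cells grown in 96-well plates and exposed to compound for 48 hours at five concentrations. The concentration for 50% growth inhibition is given as GI50.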 Active and inactive are the calls of the source. Cut-off read from the data, not from the text of the source: active = GI50 up to about 1.1 µM and inactive = higher.

Columns and labels:
Assay in all cases: inhibition of tumour cell growth, NCI panel, 48 h
[1] = tested on: OVCAR-3
[2] = tested on: ACHN
[3] = tested on: SN12C
[4] = tested on: U-251
[5] = tested on: CAKI-1
[6] = tested on: SNB-19
[7] = tested on: RPMI-8226
[8] = tested on: OVCAR-5
[9] = tested on: SK-MEL-2
[10] = tested on: IGROV-1
[11] = tested on: PC-3
[12] = tested on: HCC 2998
[13] = tested on: HCT-116
[14] = tested on: NCI-H522
[15] = tested on: MDA-MB-231
[16] = tested on: OVCAR-4
[17] = tested on: NCI/ADR-RES
[18] = tested on: SNB-75
[19] = tested on: KM12

Measured: GI50

COc1ccc(C(=O)CC(c2ccc(OC)c(OC)c2)c2c(O)oc3ccccc3c2=O)cc1OC (configuration not stated)
inactive: [1] > 100 µM | [2] > 100 µM | [3] > 100 µM | [4] > 100 µM | [5] > 100 µM | [6] > 100 µM | [7] 95.1 µM | [8] > 100 µM | [9] > 100 µM | [10] > 100 µM | [11] > 100 µM | [12] > 100 µM | [13] > 100 µM | [14] > 100 µM | [15] > 100 µM | [16] > 100 µM | [17] > 100 µM | [18] > 100 µM | [19] > 100 µM

CC(=O)OCC12CN(C#N)C3C4COC(CC41)C1(C(=O)N(C)c4ccccc41)C32 (configuration not stated)
inactive: [1] 3.58 µM | [2] 14.3 µM | [3] 20.3 µM | [4] 56.1 µM | [5] 17.3 µM | [7] 9.73 µM | [8] 33.4 µM | [9] 24.9 µM | [10] 24 µM | [11] 33.2 µM | [12] 28.2 µM | [13] 19.3 µM | [14] 12.1 µM | [15] 13.4 µM | [16] 16.1 µM | [17] 22.2 µM | [18] 26.5 µM | [19] 36.5 µM

[N-]=[N+]=C(C(=O)C(=[N+]=[N-])C(=O)c1ccccc1)C(=O)c1ccccc1
inactive: [1] > 100 µM | [2] > 100 µM | [3] > 100 µM | [6] > 100 µM | [7] > 100 µM | [8] > 100 µM | [9] > 100 µM | [10] > 100 µM | [11] > 100 µM | [12] > 100 µM | [13] > 100 µM | [14] > 100 µM | [15] > 100 µM | [17] > 100 µM | [18] > 100 µM | [19] 44.2 µM

C#CC(O)/C=C/C(O)CCCC(O)CC#CC(O)C#CC(O)CCCC(O)/C=C/CCCC(=O)CCCCCCCCCCCCCCCC(O)C(O)C#CC(=O)O (configuration not stated)
inactive: [2] > 50 µM | [3] > 50 µM | [4] > 50 µM | [5] > 50 µM | [6] > 50 µM | [7] > 50 µM | [8] > 50 µM | [9] > 50 µM | [10] 9.79 µM | [11] > 50 µM | [12] > 50 µM | [13] > 50 µM | [14] 8.41 µM | [15] > 50 µM | [16] 12.5 µM | [17] > 50 µM | [18] 20.1 µM | [19] > 50 µM

COc1ccc2c(c1)N=C1CSC(c3cc([N+](=O)[O-])ccc3Cl)N1C2 (configuration not stated)
inactive: [2] 20 µM | [3] 16.3 µM | [4] 25.6 µM | [5] 22 µM | [6] 32.3 µM | [7] 17.4 µM | [8] 24 µM | [9] 18.2 µM | [10] 34.5 µM | [11] 21.5 µM | [12] 16.6 µM | [13] 20.1 µM | [14] 21.5 µM | [15] 20.8 µM | [16] 23.8 µM | [17] 23.4 µM | [18] 19.2 µM | [19] 19 µM

NC(=O)NCCCC(NC(=O)OCCCCCn1ccc(=O)[nH]c1=O)C(=O)O (configuration not stated)
inactive: [1] > 100 µM | [2] > 100 µM | [3] > 100 µM | [4] > 100 µM | [5] > 100 µM | [6] > 100 µM | [7] > 100 µM | [8] > 100 µM | [9] > 100 µM | [10] 23.1 µM | [11] > 100 µM | [12] > 100 µM | [13] > 100 µM | [15] > 100 µM | [16] > 100 µM | [17] > 100 µM | [18] > 100 µM | [19] > 100 µM
